Assay [1] deals with T1, glutathione S-transferase (GST)-fused full-length human Syk protein (Homo sapiens, UniProt P43405).
T1 construct: (GST)-fused full-length human Syk protein; GST (glutathione S-transferase); purchased Carna Biosciences
Briefly: Syk enzyme assay. The note with it: Syk enzyme assay, Test Example 1; read-out: IC50 of Syk-inhibitory activity. It counts as biochemical. An outline of the steps:
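IC50 values come from a time-resolved FRET readout (615 and 665 nm) of substrate phosphorylation, measured after an EDTA stop and 1 h antibody binding. The kinase reaction ran 40 min at room temperature with 27 μM ATP and 0.4 μM biotin-peptide, following a 15 min compound preincubation with baculovirus-made GST-full-length human Syk.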

In a further assay the test system is THP-1 cells. Briefly: TNFα generation assay. It is filed as cell-based, human. To be noted: Homo sapiens, THP-1, THP-1 cells; Table 22; read-out: IC50 in TNFα generation assay. An outline of the steps: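 Secreted TNFα in supernatant quantified by ELISA or AlphaLISA after 7 h culture on human IgG-coated wells (10 μg/ml coating). Cells were IFN-γ-differentiated THP-1 (10 ng/ml, 2 days), exposed to compound for 30 min at room temperature before plating.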

Take `COCCOc1cc(Nc2nc(N[C@H](CC3CC3)[C@H](C)N)c(F)cc2C(N)=O)ccn1` [Example 006-394, 6-(((2R,3S)-3-amino-1-cyclopropylbutan-2-yl)amino)-5-fluoro-2-((2-(2-methoxyethoxy)pyridin-4-yl)amino)nicotinamide]: the values for the IC50 (in assay [1]; in the assay with THP-1 cells) were less than 10 nM and 65 to 130 nM, respectively.

Take `C=C(C)C[C@@H](Nc1nc(Nc2ccc3ncccc3c2)c(C(N)=O)cc1F)[C@H](C)N` [Example 006-396, 6-(((2S,3R)-2-amino-5-methylhex-5-en-3-yl)amino)-5-fluoro-2-(quinolin-6-ylamino)nicotinamide]: the results for the IC50 (in assay [1]; in the assay with THP-1 cells) were less than 10 nM and 65 to 130 nM, respectively.

Consider `C=C(C)C[C@@H](Nc1nc(Nc2ccc3c(cnn3CC)c2)c(C(N)=O)cc1F)[C@H](C)N` [Example 006-397, 6-(((2S,3R)-2-amino-5-methylhex-5-en-3-yl)amino)-2-((1-ethyl-1H-indazol-5-yl)amino)-5-fluoronicotinamide], for which the values for the IC50 (in assay [1]; in the assay with THP-1 cells) were less than 10 nM and less than 65 nM, respectively.

Regarding `CCC[C@@H](Nc1nc(Nc2ccc3c(cnn3C)c2)c(C(N)=O)cc1F)[C@@H](N)CC` [Example 006-398, 6-(((3S,4R)-3-aminoheptan-4-yl)amino)-5-fluoro-2-((1-methyl-1H-indazol-5-yl)amino)nicotinamide], the IC50 in assay [1] was less than 10 nM; with THP-1 cells it was 65 to 130 nM.

Turning to `CCC[C@@H](Nc1nc(Nc2ccc3c(cnn3CCOC)c2)c(C(N)=O)cc1F)[C@@H](N)CC` [Example 006-400, 6-(((3S,4R)-3-aminoheptan-4-yl)amino)-5-fluoro-2-((1-(2-methoxyethyl)-1H-indazol-5-yl)amino)nicotinamide], the IC50 in assay [1] was less than 10 nM; in the assay on THP-1 cells, less than 65 nM.

`CCC[C@@H](Nc1nc(Nc2ccnc(OCCOC)c2)c(C(N)=O)cc1F)[C@@H](N)CC` [Example 006-401, 6-(((3S,4R)-3-aminoheptan-4-yl)amino)-5-fluoro-2-((2-(2-methoxyethoxy)pyridin-4-yl)amino)nicotinamide]: the IC50 in assay [1] is 10 to 50 nM; in the assay on THP-1 cells it was 130 to 200 nM.

With `CCC[C@@H](Nc1nc(Nc2cncc(C3CC3)c2)c(C(N)=O)cc1F)[C@@H](N)CC` [Example 006-402, 6-(((3S,4R)-3-aminoheptan-4-yl)amino)-2-((5-cyclopropylpyridin-3-yl)amino)-5-fluoronicotinamide], the IC50 in assay [1] was less than 10 nM; with THP-1 cells, 130 to 200 nM.

Consider `CCC[C@@H](Nc1nc(Nc2cnc(C)c(-n3nccn3)c2)c(C(N)=O)cc1F)[C@@H](N)CC` [Example 006-403, 6-(((3S,4R)-3-aminoheptan-4-yl)amino)-5-fluoro-2-((6-methyl-5-(2H-1,2,3-triazol-2-yl)pyridin-3-yl)amino)nicotinamide], for which the IC50 in assay [1] lay in the range of 10 to 50 nM; in the assay on THP-1 cells, 130 to 200 nM.

As for `CCC[C@@H](Nc1nc(Nc2ccnc(OC)c2)c(C(N)=O)cc1F)[C@@H](N)CC` [Example 006-404, 6-(((3S,4R)-3-aminoheptan-4-yl)amino)-5-fluoro-2-((2-methoxypyridin-4-yl)amino)nicotinamide], the IC50 in assay [1] was less than 10 nM; in the assay on THP-1 cells, 130 to 200 nM.

As to `CCCC[C@@H](Nc1nc(Nc2cc(OC)nc(OC)c2)c(C(N)=O)cc1F)[C@H](C)N` [Example 006-405, 6-(((2S,3R)-2-aminoheptan-3-yl)amino)-2-((2,6-dimethoxypyridin-4-yl)amino)-5-fluoronicotinamide], the figures for the IC50 (in assay [1]; in the assay with THP-1 cells) were less than 10 nM and 130 to 200 nM, respectively.

As to `CCCC[C@@H](Nc1nc(Nc2ccnc(OC)c2)c(C(N)=O)cc1F)[C@H](C)N` [Example 006-406, 6-(((2S,3R)-2-aminoheptan-3-yl)amino)-5-fluoro-2-((2-methoxypyridin-4-yl)amino)nicotinamide], the IC50 in assay [1] is less than 10 nM; with THP-1 cells it was 65 to 130 nM.

As for `CCCC[C@@H](Nc1nc(Nc2ccnc(OCCOC)c2)c(C(N)=O)cc1F)[C@H](C)N` [Example 006-407, 6-(((2S,3R)-2-aminoheptan-3-yl)amino)-5-fluoro-2-((2-(2-methoxyethoxy)pyridin-4-yl)amino)nicotinamide], the IC50 in assay [1] was less than 10 nM; with THP-1 cells it was 130 to 200 nM.

These data come from patent publication US8895585B2, “Nicotinamide derivative or salt thereof” (FUJIFILM Corporation, priority 2010, dated 2014).
